Reference: US7683176B2, “Triazolyl pyridyl benzenesulfonamides” (ChemoCentryx, Inc., priority 2006, dated 2010)
pIC50: −log10 of the molar value.

Biological target: T1, CCR2 (Homo sapiens, UniProt P41597)
T1 construct: chemokine expressing cells (such as THP-1 cells for CCR2 assay or MOLT-4 cells for CCR9 assay); host or cells: THP-1
T1 sequence (P41597 1-360 isoform P41597-2): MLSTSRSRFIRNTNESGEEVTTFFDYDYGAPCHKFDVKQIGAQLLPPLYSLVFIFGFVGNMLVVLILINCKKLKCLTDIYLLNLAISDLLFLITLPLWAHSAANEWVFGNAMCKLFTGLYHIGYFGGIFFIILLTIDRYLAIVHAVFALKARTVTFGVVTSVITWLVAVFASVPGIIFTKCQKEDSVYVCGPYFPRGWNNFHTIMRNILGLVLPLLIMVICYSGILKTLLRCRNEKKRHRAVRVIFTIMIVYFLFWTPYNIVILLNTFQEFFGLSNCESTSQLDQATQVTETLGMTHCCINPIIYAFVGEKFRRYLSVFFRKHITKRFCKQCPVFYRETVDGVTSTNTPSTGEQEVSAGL
Assay: CCR2 activity in one of the chemotaxis, binding or calcium mobilization assays
Assay type: cell-based
Details: binding or calcium mobilization assays (THP-1 cells, MCP-1)
Experimental: THP-1 cells and MOLT-4 cells were obtained from the American Type Culture Collection (Manassas, Va.) and cultured in RPMI tissue culture medium supplemented with 10% fetal calf serum (FCS) in a humidified 5% CO2 incubator at 37° C. Recombinant human chemokine proteins MCP-1 and TECK were obtained from R&D Systems (Minneapolis, Minn.). ^125I-labeled MCP-1 protein was obtained from Amersham (Piscataway, N.J.). ChemoTX® chemotaxis microchambers were purchased from Neuro Probe (Gaithersburg, Md.). CyQUANT® cell proliferation kits were purchased from Molecular Probes (Eugene, Oreg.). Calcium indicator dye Fluo-4 AM was purchased from Molecular Devices (Mountain View, Calif.).
Conventional migration assay was used to determine the efficacy of potential receptor antagonists in blocking migration mediated through chemokines (such as CCR2 or CCR9). This assay was routinely performed using the ChemoTX® microchamber system with a 5-μm pore-sized polycarbonate membrane. To begin such an assay, chemokine expressing cells (such as THP-1 cells for CCR2 assay or MOLT-4 cells for CCR9 assay) were harvested by centrifugation of cell suspension at 1000 RPM on a GS-6R Beckman centrifuge. The cell pellet was resuspended in chemotaxis buffer (HBSS with 0.1% BSA) at 10×10^6 cells/mL for CCR2 assay (5×10^6 cells/mL for CCR9 assay). Test compounds at desired concentrations were prepared from 10 mM stock solutions by serial dilutions in chemotaxis buffer. An equal volume of cells and compounds were mixed and incubated at room temperature for 15 minutes. Afterwards, 20 μL of the mixture was transferred onto the porous membrane of a migration microchamber, with 29 μL of chemokine ligand (0.1 nM chemokine MCP-1 protein for CCR2 assay or […] chemokine TECK protein for CCR9 assay) placed at the lower chamber. Following an incubation at 37° C. (90-minute for CCR2; 150-minute for CCR9), during which cells migrated […] the chemokine gradient, the assay was terminated by removing the cell drops from atop the filter. To quantify cells migrated across the membrane, 5 μL of 7× CyQUANT® solution was added to each well in the lower chamber, and the fluorescence signal measured on a Spectrafluor Plus fluorescence plate reader (TECAN, Durham, N.C.). The degree of inhibition was determined by comparing migration signals between compound-treated and untreated cells. IC50 calculation was further performed by non-linear squares regression analysis using Graphpad Prism (Graphpad Software, San Diego, Calif.).
Calcium flux assay measures an increase in intracellular calcium following ligand-induced receptor activation. In the screen of chemokine antagonists, it was used as a secondary assay carried out on a FLIPR® machine (Molecular Devices, Mountain View, Calif.). To begin an assay, chemokine expressing cells (such as THP-1 cells for CCR2 assay or MOLT-4 cells for CCR9 assay) were harvested by centrifugation of cell suspension, and resuspended to 1.5×10^6 cells/mL in HBSS (with 1% fetal calf serum). Cells were then labeled with a calcium indicator dye Fluo-4 AM for 45 minutes at 37° C. with gentle shaking. Following incubation, cells were pelletted, washed once with HBSS and resuspended in the same buffer at a density of 1.6×10^6 cells/mL. One hundred microliters of labeled cells were mixed with 10 μL of test compound at the appropriate concentrations on an assay plate. Chemokine protein (MCP-1 at a final concentration of 0.1 nM for CCR2 assay or TECK at a final concentration of 25 nM for CCR9 assay) to activate the receptor. The degree of inhibition was determined by comparing calcium signals between compound-treated and untreated cells. IC50 calculations were further performed by non-linear squares regression analysis using Graphpad Prism (Graphpad Software, San Diego, Calif.).
Ligand binding assay was used to determine the ability of potential CCR2 antagonists to block the interaction between CCR2 and its ligand MCP-1. […]

Compound | pIC50
COc1ccc(F)cc1-n1cnnc1-c1ncc(Cl)cc1NS(=O)(=O)c1ccc(Cl)c(C(F)(F)F)c1 | > 6.00
Cc1cnc(-c2nncn2-c2cc[nH]n2)c(NS(=O)(=O)c2ccc(Cl)c(C(F)(F)F)c2)c1 | > 6.00
CCOC(=O)c1nnc(-c2ncc(Cl)cc2NS(=O)(=O)c2ccc(Cl)c(C(F)(F)F)c2)n1-c1ccon1 | > 6.00
O=S(=O)(Nc1cc(Cl)cnc1-c1nnc(C(F)(F)F)n1-c1cc[nH]n1)c1ccc(Cl)c(C(F)(F)F)c1 | > 6.00
CCNC(=O)c1nnc(-c2ncc(Cl)cc2NS(=O)(=O)c2ccc(Cl)c(C(F)(F)F)c2)n1-c1ccon1 | > 6.00
O=C(c1nnc(-c2ncc(Cl)cc2NS(=O)(=O)c2ccc(Cl)c(C(F)(F)F)c2)n1-c1ccon1)N1CCCC1 | > 6.00
O=S(=O)(Nc1cc(Cl)cnc1-c1nncn1-c1cc[nH]n1)c1ccc(Cl)c(Cl)c1 | > 6.00
O=S(=O)(Nc1cc(Cl)cnc1-c1nncn1-c1ccon1)c1ccc(Cl)c(Cl)c1 | > 6.00
O=S(=O)(Nc1cc(Cl)cnc1-c1nncn1-c1n[nH]cc1Br)c1ccc(Cl)c(Cl)c1 | > 6.00
O=S(=O)(Nc1cc(Cl)cnc1-c1nnc(Br)n1-c1n[nH]cc1Br)c1ccc(Cl)c(Cl)c1 | > 6.00
CCN(C)C(=O)c1nnc(-c2ncc(Cl)cc2NS(=O)(=O)c2ccc(Cl)c(C(F)(F)F)c2)n1-c1ccon1 | > 6.00
Cc1cnc(-c2nnc(C(N)=O)n2-c2ccon2)c(NS(=O)(=O)c2ccc(Cl)c(C(F)(F)F)c2)c1 | > 6.00
O=S(=O)(Nc1cc(Br)cnc1-c1nncn1-c1cc[nH]n1)c1ccc(Cl)c(C(F)(F)F)c1 | > 6.00
O=S(=O)(Nc1cc(Br)cnc1-c1nncn1-c1ccon1)c1ccc(Cl)c(C(F)(F)F)c1 | > 6.00
NC(=O)c1nnc(-c2ncc(Cl)cc2NS(=O)(=O)c2ccc(Cl)c(Cl)c2)n1-c1ccon1 | > 6.00
CO[C@H]1CNC[C@@H]1n1cnnc1-c1ncc(Cl)cc1NS(=O)(=O)c1ccc(Cl)c(C(F)(F)F)c1 | > 6.00
O=S(=O)(Nc1cc(Cl)cnc1-c1nncn1C1CCNCC1)c1ccc(Cl)c(C(F)(F)F)c1 | > 6.00
O=S(=O)(Nc1cc(Cl)cnc1-c1nnc(C(F)(F)F)n1-c1ccccc1)c1ccc(Cl)c(C(F)(F)F)c1 | > 6.00
O=C(c1nnc(-c2ncc(Cl)cc2NS(=O)(=O)c2ccc(Cl)c(C(F)(F)F)c2)n1-c1ccon1)N1CCOCC1 | > 6.00
Cc1ccc(S(=O)(=O)Nc2cc(Cl)cnc2-c2nnc(C(N)=O)n2-c2ccon2)cc1C(F)(F)F | > 6.00
Cc1cnc(-c2nnc(C(N)=O)n2-c2ccccc2)c(NS(=O)(=O)c2ccc(Cl)c(C(F)(F)F)c2)c1 | > 6.00

Other lines, results leading:

pIC50 | Compound
> 6.00 | CCOC(=O)c1nnc(-c2ncc(Cl)cc2NS(=O)(=O)c2ccc(Cl)c(C(F)(F)F)c2)n1C(C)C
> 6.00 | CC(C)n1c(C(N)=O)nnc1-c1ncc(Cl)cc1NS(=O)(=O)c1ccc(Cl)c(C(F)(F)F)c1
> 6.00 | CC(C)n1c(C(=O)N(C)C)nnc1-c1ncc(Cl)cc1NS(=O)(=O)c1ccc(Cl)c(C(F)(F)F)c1
> 6.00 | C[C@@H](CO)n1cnnc1-c1ncc(Cl)cc1NS(=O)(=O)c1ccc(Cl)c(C(F)(F)F)c1
> 6.00 | CC(C)n1c(Br)nnc1-c1ncc(Cl)cc1NS(=O)(=O)c1ccc(Cl)c(C(F)(F)F)c1
> 6.00 | Cc1ccccc1-n1cnnc1-c1ncc(Cl)cc1NS(=O)(=O)c1ccc(Cl)c(C(F)(F)F)c1
> 6.00 | O=S(=O)(Nc1cc(Cl)cnc1-c1nncn1-c1n[nH]cc1Br)c1ccc(Cl)c(C(F)(F)F)c1
> 6.00 | O=S(=O)(Nc1cc(Cl)cnc1-c1nncn1-c1cn[nH]c1)c1ccc(Cl)c(C(F)(F)F)c1
> 6.00 | Cc1n[nH]cc1-n1cnnc1-c1ncc(Cl)cc1NS(=O)(=O)c1ccc(Cl)c(C(F)(F)F)c1
> 6.00 | CC(C)c1nnc(-c2ncc(Cl)cc2NS(=O)(=O)c2ccc(Cl)c(C(F)(F)F)c2)n1-c1cc[nH]n1
> 6.00 | Cc1c[nH]nc1-n1cnnc1-c1ncc(Cl)cc1NS(=O)(=O)c1ccc(Cl)c(C(F)(F)F)c1
> 6.00 | NC(=O)c1nnc(-c2ncc(Cl)cc2NS(=O)(=O)c2ccc(Cl)c(C(F)(F)F)c2)n1-c1ccon1
> 6.00 | CN(C)C(=O)c1nnc(-c2ncc(Cl)cc2NS(=O)(=O)c2ccc(Cl)c(C(F)(F)F)c2)n1-c1ccon1
> 6.00 | Cc1nnc(-c2ncc(Cl)cc2NS(=O)(=O)c2ccc(Cl)c(C(F)(F)F)c2)n1-c1n[nH]cc1Br
> 6.00 | COCc1nnc(-c2ncc(Cl)cc2NS(=O)(=O)c2ccc(Cl)c(C(F)(F)F)c2)n1-c1cc[nH]n1
> 6.00 | COCc1nnc(-c2ncc(Cl)cc2NS(=O)(=O)c2ccc(Cl)c(C(F)(F)F)c2)n1-c1ccon1
> 6.00 | CC(C)n1c(N)nnc1-c1ncc(Cl)cc1NS(=O)(=O)c1ccc(Cl)c(C(F)(F)F)c1
> 6.00 | O=S(=O)(Nc1cc(Cl)cnc1-c1nnc(C2CC2)n1-c1cc[nH]n1)c1ccc(Cl)c(C(F)(F)F)c1
> 6.00 | CC(C)NC(=O)c1nnc(-c2ncc(Cl)cc2NS(=O)(=O)c2ccc(Cl)c(C(F)(F)F)c2)n1-c1ccon1
> 6.00 | CC(C)(C)c1nnc(-c2ncc(Cl)cc2NS(=O)(=O)c2ccc(Cl)c(C(F)(F)F)c2)n1-c1cc[nH]n1
> 6.00 | O=S(=O)(Nc1cc(Cl)cnc1-c1nnc(Br)n1-c1ccon1)c1ccc(Cl)c(C(F)(F)F)c1
> 6.00 | Cn1nccc1-n1cnnc1-c1ncc(Cl)cc1NS(=O)(=O)c1ccc(Cl)c(C(F)(F)F)c1
> 6.00 | O=S(=O)(Nc1cc(Cl)cnc1-c1nncn1C1CCNC1)c1ccc(Cl)c(C(F)(F)F)c1 (stereo not drawn)
> 6.00 | CCCn1cnnc1-c1ncc(Cl)cc1NS(=O)(=O)c1ccc(Cl)c(C(F)(F)F)c1
> 6.00 | CC(C)n1c(Cl)nnc1-c1ncc(Cl)cc1NS(=O)(=O)c1ccc(Cl)c(C(F)(F)F)c1
> 6.00 | CC(CCO)n1cnnc1-c1ncc(Cl)cc1NS(=O)(=O)c1ccc(Cl)c(C(F)(F)F)c1 (stereo not drawn)
> 6.00 | CC(CN(C)C)n1cnnc1-c1ncc(Cl)cc1NS(=O)(=O)c1ccc(Cl)c(C(F)(F)F)c1 (stereo not drawn)
> 6.00 | CC(C)n1c(CO)nnc1-c1ncc(Cl)cc1NS(=O)(=O)c1ccc(Cl)c(C(F)(F)F)c1
> 6.00 | O=S(=O)(Nc1cc(Cl)cnc1-c1nnc(CO)n1-c1ccon1)c1ccc(Cl)c(C(F)(F)F)c1
> 6.00 | CC(C)n1c(CN(C)C)nnc1-c1ncc(Cl)cc1NS(=O)(=O)c1ccc(Cl)c(C(F)(F)F)c1
